Measurements reported in patent publication US20250074896A1, “ARYLTETRAHYDROPYRIDAZINE DERIVATIVE OR SALT THEREOF AND INSECTICIDAL AGENT CONTAINING THE COMPOUND AND METHOD FOR USING SAME” (NIHON NOHYAKU CO., LTD., priority 2021, published 2025).
Read-outs that look alike come from different tables or passages of the source.

Columns and labels:
Assay type in all cases: in vivo
[1] = tested on: Diamondback moth (Plutella xylostella); experiment: Insecticidal test on diamondback moth (dip treatment of Chinese cabbage seedlings with laid eggs); settings: 144 h, read-out: insecticidal efficacy (corrected mortality rate) against diamondback moth
Description: Insecticidal Test on Diamondback moth (Plutella xylostella)
Adults of diamondback moth were released onto Chinese cabbage seedlings and allowed to lay eggs thereon. At 2 days after the release of the adults, the Chinese cabbage seedlings with laid eggs were dipped for about 30 seconds in agrochemical dispersions diluted to 50 ppm or 500 ppm, each of which contained a different compound represented by the general formula (1) of the present invention as an active ingredient. After air-dried, the seedlings were kept in a thermostatic chamber at 25° C. At 6 days after the dip treatment, the number of surviving larvae per plot was counted, the corrected mortality rate was calculated according to the formula shown below, and the insecticidal efficacy was evaluated according to the criteria shown below. This test was conducted in triplicate using 10 adults of diamondback moth per plot.
(§1) • A: the mortality rate is 100%. • B: the mortality rate is 90 to 99%. • C: the mortality rate is 80 to 89%. • D: the mortality rate is 50 to 79%. • E: the mortality rate is 0 to 49%.

[2] = tested on: Small Brown Planthopper (Laodelphax striatellus); experiment: Insecticidal test on small brown planthopper (dipped rice seedlings, 3rd-instar larvae); settings: 192 h, rice seedlings dipped 30 seconds, 8 days after inoculation, read-out: insecticidal efficacy (corrected mortality rate) against small brown planthopper
Description: as §1
Insecticidal Test on Small Brown Planthopper (Laodelphax striatellus)
The compounds represented by the general formula (1) of the present invention or salts thereof were separately dispersed in water and diluted to 50 ppm or 500 ppm. Rice plant seedlings (variety: Nihonbare) were dipped in the agrochemical dispersions for 30 seconds. After air-dried, each seedling was put into a separate glass test tube and inoculated with ten 3rd-instar larvae of small brown planthopper, and then the glass test tubes were capped with cotton plugs. At 8 days after the inoculation, the numbers of surviving larvae and dead larvae were counted, the corrected mortality rate was calculated according to the formula shown below, and the insecticidal efficacy was evaluated according to the criteria of Test Example 1.

[3] = tested on: Western Flower Thrips (Frankliniella occidentalis); experiment: Insecticidal test on western flower thrips (kidney bean leaf pieces, hatched larvae); settings: 96 h, read-out: insecticidal efficacy (corrected mortality rate) against western flower thrips
Description: as §1
Insecticidal Test on Western Flower Thrips (Frankliniella occidentalis)
Female adults of western flower thrips were inoculated onto kidney bean leaf pieces, and allowed to lay eggs thereon for one day, then the female adults were removed. After 3 days, the hatched larvae on the leaf pieces were counted, and then the agrochemical dispersions diluted to 50 ppm or 500 ppm, each of which contained the compound described in Tables 1 to 6 as an active ingredient were applied. The number of larvae of the species surviving at 4 days after the treatment was counted, and the corrected mortality rate was calculated according to the formula shown below, and the insecticidal efficacy was evaluated according to the criteria of Test Example 1. This test was conducted in duplicate.

[4] = 500 ppm, dip about 30 seconds, 6 days after treatment, 25° C.
[5] = 500 ppm, 4 days after the treatment
[6] = dip about 30 seconds, 6 days after treatment, 25° C.

N#Cc1ccc(N2CC(O)=C(C(=O)Nc3ccc(F)cc3)C(=S)N2)cn1 [6-6, 1-(6-cyanopyridin-3-yl)-N-(4-fluorophenyl)-5-hydroxy-3-thioxo-1,2,3,6-tetrahydropyridazine-4-carboxamide]
100%: mortality at 500 ppm [1, 4] | mortality at 500 ppm [2] | mortality at 500 ppm [3, 5]

O=C(Nc1ccc(C(F)(F)F)cc1)C1=C(O)CN(c2ccc(C(F)(F)F)nc2)NC1=O [1-85, N-(4-trifluoromethylphenyl)-5-hydroxy-3-oxo-1-(6-(trifluoromethyl)pyridin-3-yl)-1,2,3,6-tetrahydropyridazine-4-carboxamide]
100%: mortality at 500 ppm [1] | mortality at 500 ppm [3]

CCCNC(=O)N1C(=O)C(C(=O)Nc2ccn(C)n2)=C(O)CN1c1ccc(C#N)cc1 [3-563, N^5-(1-methyl-1H-pyrazol-3-yl) N^1-propyl 4-hydroxy-6-oxo-2-(4-cyanophenyl)-2,3-dihydropyridazine-1,5(6H)-dicarboxamide]
100%: mortality at 50 ppm [2] | mortality at 500 ppm [2]

COC(=O)N1C(=O)C(C(=O)Nc2ccn(C)n2)=C(O)CN1c1ccc(C#N)cc1 [3-437, methyl 2-(4-cyanophenyl)-4-hydroxy-5-((1-methyl-1H-pyrazol-3-yl)carbamoyl)-6-oxo-2,3-dihydropyridazine-1(6H)-carboxylate]
100%: mortality at 50 ppm [2] | mortality at 500 ppm [2] | mortality at 50 ppm ([3]; 4 days after the treatment) | mortality at 500 ppm [3, 5]

CC(C)(C)OC(=O)N1C(=O)C(C(=O)Nc2ccc(F)cc2)=C(S)CN1c1ccc(C(F)(F)F)nc1 [5-7, tert-butyl 5-((4-fluorophenyl)carbamoyl)-4-mercapto-6-oxo-2-(6-(trifluoromethyl)pyridin-3-yl)-2,3-dihydropyridazine-1(6H)-carboxylate]
100%: mortality at 50 ppm [1, 6] | mortality at 500 ppm [1, 4] | mortality at 50 ppm [2] | mortality at 500 ppm [2] | mortality at 50 ppm ([3]; 4 days after the treatment) | mortality at 500 ppm [3, 5]

CSC1=C(C(=O)Nc2ccc(F)cc2)C(=O)N(C(=O)OC(C)(C)C)N(c2ccc(C(F)(F)F)nc2)C1 [5-11, tert-butyl 5-((4-fluorophenyl)carbamoyl)-4-methylsulfanyl-6-oxo-2-(6-(trifluoromethyl)pyridin-3-yl)-2,3-dihydropyridazine-1(6H)-carboxylate]
100%: mortality at 50 ppm [1, 6] | mortality at 500 ppm [1, 4] | mortality at 50 ppm [2] | mortality at 500 ppm [2] | mortality at 50 ppm ([3]; 4 days after the treatment) | mortality at 500 ppm [3, 5]

CC(C)(C)OC(=O)N1C(=O)C(C(=S)Nc2ccc(F)cc2)=C(O)CN1c1ccc(C(F)(F)F)nc1 [4-34, tert-butyl 5-((4-fluorophenyl)carbamothioyl)-4-hydroxy-6-oxo-2-(6-(trifluoromethyl)pyridin-3-yl)-2,3-dihydropyridazine-1(6H)-carboxylate]
100%: mortality at 50 ppm [1, 6] | mortality at 500 ppm [1, 4] | mortality at 50 ppm [2] | mortality at 500 ppm [2] | mortality at 50 ppm ([3]; 4 days after the treatment) | mortality at 500 ppm [3, 5]

CC(C)(C)OC(=O)N1C(=O)C(C(=O)Nc2ccc(F)cc2)=C(O)CN1c1ccc(C(F)(F)F)nc1 [3-308, tert-butyl 5-((4-fluorophenyl)carbamoyl)-4-hydroxy-6-oxo-2-(6-(trifluoromethyl)pyridin-3-yl)-2,3-dihydropyridazine-1(6H)-carboxylate]
100%: mortality at 50 ppm [1, 6] | mortality at 500 ppm [1, 4] | mortality at 50 ppm [2] | mortality at 500 ppm [2] | mortality at 50 ppm ([3]; 4 days after the treatment) | mortality at 500 ppm [3, 5]

O=C(Nc1ccc(F)cc1)C1=C(S)CN(c2ccc(C(F)(F)F)nc2)NC1=O [5-2, N-(4-fluorophenyl)-5-mercapto-3-oxo-1-(6-(trifluoromethyl)pyridin-3-yl)-1,2,3,6-tetrahydropyridazine-4-carboxamide]
100%: mortality at 50 ppm [1, 6] | mortality at 500 ppm [1, 4] | mortality at 50 ppm [2] | mortality at 500 ppm [2] | mortality at 50 ppm ([3]; 4 days after the treatment) | mortality at 500 ppm [3, 5]

CCNC(=O)N1C(=O)C(C(=O)Nc2ccc(F)cc2)=C(O)CN1c1ccc(C(F)(F)F)nc1 [3-22, N^1-ethyl-N^5-(4-fluorophenyl)-4-hydroxy-6-oxo-2-(6-(trifluoromethyl)pyridin-3-yl)-2,3-dihydropyridazine-1,5(6H)-dicarboxamide]
100%: mortality at 500 ppm [1, 4] | mortality at 500 ppm [2] | mortality at 50 ppm ([3]; 4 days after the treatment) | mortality at 500 ppm [3, 5]

CNC(=S)N1C(=O)C(C(=O)Nc2ccc(F)cc2)=C(O)CN1c1ccc(C(F)(F)F)nc1 [3-362, N-(4-fluorophenyl)-5-hydroxy-2-(methylcarbamothioyl)-3-oxo-1-(6-(trifluoromethyl)pyridin-3-yl)-1,2,3,6-tetrahydropyridazine-4-carboxamide]
100%: mortality at 50 ppm [1, 6] | mortality at 500 ppm [1, 4] | mortality at 50 ppm ([3]; 4 days after the treatment) | mortality at 500 ppm [3, 5]
